Consider 6 compounds from article PMC12322948 (The Journal of Organic Chemistry, 2025).

Where two headings read alike, the source gives them in different places.

This assay deals with T1, ACE2 (Homo sapiens, UniProt Q9BYF1).
T1 construct: purchased Abcam/BioVision ab273373
Description: ACE2 inhibition assay (Abcam ACE2 Inhibitor Screening Kit, fluorogenic MCA peptide substrate). The assay is classed as biochemical. The note with it: for pIC50 exp-MLN – pIC50 exp: difference between experimental pIC50 of MLN-4760 and of the compound. As for the experimental part: Having validated our radiosynthetic approach to (S,S)-[^18F]1 and with various fluorinated MLN-4760 analogues in hand, we next looked to evaluate the inhibitory activity of the analogues using a commercially available ACE2 inhibition assay kit (Table ) (Figure ). […] Consequently, the pIC50 values of the tested compounds were evaluated relative to our experimentally measured value for MLN-4760 in order to identify lead candidates for radiolabeling. […] The difference between the in vitro pIC^exp 50 for MLN-4760 and the pIC^exp 50 values of (S,S)-1–(S,S)-4 aligned with the difference in the in silico predicted pIC50 (pIC^pr 50) of MLN-4760 and pIC^pr 50 values of (S,S)-1–(S,S)-4. Specifically, these pIC50 differences for all 3,5-disubstituted benzyl analogues (S,S)-2, (S,S)-3, and (S,S)-4 were smaller than for the para-substituted benzyl analogue (S,S)-1, providing support for the pIC^pr 50 values (Table ). Consequently, compounds (S,S)-2, (S,S)-3 and (S,S)-4, with pIC50 values in the same range as MLN-4760, emerge as priority targets for future ACE2 PET radioligand development.
The assay for the inhibition of ACE2 was conducted using a commercially available ACE2 Inhibitor Screening Kit, purchased from Abcam (ACE2 Inhibitor Screening Kit, ab273373; Abcam/BioVision), in 96-well microplates (half area, black, flat bottomed, Greiner Bio-One International) at ambient temperature (set to 23.5 °C), total volume 100 µL. The assay employs a synthetic MCA-based peptide substrate that, upon cleavage by active ACE2, releases a fluorophore measurable by a fluorescence microplate reader (Ex/Em = 320/420 nm). Compounds to be tested were serially diluted with dilution buffer from a stock solution (5 mg/mL) in dimethyl sulfoxide (DMSO) to different concentrations.
Diluted ACE2 enzyme solution was prepared by diluting ACE2 enzyme (20 µL, provided in the kit) with dilution buffer (198 µL, provided in the kit ) and was aliquoted and stored at -20 °C.
Diluted ACE2 enzyme solution (2 µL) was added to assay buffer (48 µL ) to make ACE2 enzyme working solution. Inhibitor solution was prepared by adding the cont rol inhibitors (5 µL, 0.5 mM) to dilution buffer (50 µL) and was aliquoted and stored at -20 °C. The ACE2 substrate was aliquoted and stored at -20 °C. ACE2 substrate solution was prepared by diluting substrate (2 µL) […]
Five controls were prepared: enzyme control (positive control, inhibition free reaction), inhibitor control (negative control to test inhibition), background control (to remove fluorescence from the background), test compound control (to test whether the test compounds react with the substrate) and vehicle control (to test the effect of solvent DMSO on ACE2 enzyme activity).
For enzyme control, inhibitor control and vehicle control, and test compounds, ACE2 enzyme working solution (50 µL) was added. For background control and test compound control, assay buffer (50 µL) was added. Then, assay buffer (10 µL) was added to enzyme control and background control. DMSO solution in assay buffer (10 µL) was added to vehicle control. Inhibitor solution (10 µL) was added to inhibitor control. Test compound solution (10 µL) was added to the test compound control. For the test compound, compound solution (10 µL) with the different concentrations were added. An example of preparation can be found on Table S3.1. The mixture […]
and substrate were incubated separately at room temperature for 15 minutes before substrate (40 µL) was added to each test and mixed evenly to start the reaction. Fluorescence was monitored over 61-minutes (excitation = 320 nm, emission = 420 nm) using a Tecan microplate reader (Infinite® 200 PRO NanoQuant Microplate Reader). Fluorescence spectra were measured using the fluorescence intensity mode (excitation = 320 nm).
Table S4.1. Preparation of control and test compounds
Test Component 1 Component 2 Component 3
Vehicle control 50 µL enzyme1 10 µL DMSO (0.1 mM) 40 µL substrate2
Background control 50 µL assay buffer 10 µL assay buffer 40 µL substrate […]

The mark [1] stands for this setting: Abcam ACE2 inhibitor screening kit, read-out: pIC50 exp (experimental pIC50) (converted).

T1 sequence (Q9BYF1 18-805): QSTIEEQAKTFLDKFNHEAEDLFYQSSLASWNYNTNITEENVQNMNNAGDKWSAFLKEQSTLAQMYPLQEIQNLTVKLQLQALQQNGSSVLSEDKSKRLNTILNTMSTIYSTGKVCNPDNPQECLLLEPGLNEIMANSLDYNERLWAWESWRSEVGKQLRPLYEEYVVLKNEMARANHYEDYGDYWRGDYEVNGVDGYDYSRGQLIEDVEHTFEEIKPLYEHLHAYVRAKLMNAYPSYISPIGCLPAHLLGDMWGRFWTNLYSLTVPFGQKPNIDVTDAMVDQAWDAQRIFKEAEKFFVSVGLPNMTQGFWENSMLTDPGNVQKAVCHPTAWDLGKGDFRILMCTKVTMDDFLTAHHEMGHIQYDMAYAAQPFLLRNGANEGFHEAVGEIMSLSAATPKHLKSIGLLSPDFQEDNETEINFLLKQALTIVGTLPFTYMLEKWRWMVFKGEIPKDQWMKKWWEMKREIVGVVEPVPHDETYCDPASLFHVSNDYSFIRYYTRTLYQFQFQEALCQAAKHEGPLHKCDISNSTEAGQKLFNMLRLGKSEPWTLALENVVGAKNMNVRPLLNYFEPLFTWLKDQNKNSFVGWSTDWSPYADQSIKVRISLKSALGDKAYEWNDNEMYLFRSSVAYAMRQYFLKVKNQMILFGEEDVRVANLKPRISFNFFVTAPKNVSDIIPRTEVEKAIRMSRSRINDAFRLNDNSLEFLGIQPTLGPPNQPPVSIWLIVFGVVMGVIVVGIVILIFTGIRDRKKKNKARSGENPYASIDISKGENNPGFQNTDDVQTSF

As to `CC(C)C[C@@H](N[C@@H](Cc1cncn1Cc1ccc(F)cc1)C(=O)O)C(=O)O` [(S,R)-1], the “pIC50 exp-MLN – pIC50 exp” value was determined as 3.15. In addition, the IC50 under setting [1] is 40700 nM.

As for `CC(C)C[C@H](N[C@@H](Cc1cncn1Cc1ccc(F)cc1)C(=O)O)C(=O)O` [(S,S)-1], the “pIC50 exp-MLN – pIC50 exp” value is listed as 0.85. In addition, the IC50 under setting [1] is 204 nM.

In the case of `Cc1cc(F)cc(Cn2cncc2C[C@H](N[C@@H](CC(C)C)C(=O)O)C(=O)O)c1` [(S,S)-2], the IC50 is 66.1 nM and the “pIC50 exp-MLN – pIC50 exp” value was determined as 0.36.

On to `CC(C)C[C@H](N[C@@H](Cc1cncn1Cc1cc(F)cc(Cl)c1)C(=O)O)C(=O)O` [(S,S)-3], for which the IC50 was 24.5 nM and the “pIC50 exp-MLN – pIC50 exp” value was “–0.07”.

Consider `COc1cc(Cn2cncc2C[C@H](N[C@@H](CC(C)C)C(=O)O)C(=O)O)cc(OCCF)c1` [(S,S)-4], for which the IC50 is 53.7 nM and the “pIC50 exp-MLN – pIC50 exp” value is on record as 0.27.

Regarding `CC(C)C[C@H](N[C@@H](Cc1cncn1Cc1cc(Cl)cc(Cl)c1)C(=O)O)C(=O)O` [MLN-4760, (S,S)-2-(1-carboxy-2-(3-(3,5-dichlorobenzyl)-3H-imidazol-4-yl)-ethylamino)-4-methylpentanoic acid, reference compound], the IC50 is 28.8 nM and the “pIC50 exp-MLN – pIC50 exp” value is recorded as 0.00.
